These results are taken from ChEMBL document CHEMBL1649393, “Synthesis and antimicrobial activity of thiosemicarbazides, s-triazoles and their Mannich bases bearing 3-chlorophenyl moiety” (2011).

≈ marks a conversion by molar mass, not a printed value.

Format in all cases: functional
Test [1] has as its system Staphylococcus aureus. The test is described as follows: Antimicrobial activity against Staphylococcus aureus ATCC 25923 after 18 hrs by broth microdilution method. Particulars: ATCC 25923, 18 h.
Test [2] concerns Bacillus cereus. The test is described as follows: Antimicrobial activity against Bacillus cereus ATCC 10876 assessed as >99.9 % reduction in CFU after 18 hrs by broth microdilution method. Conditions: ATCC 10876, 18 h. Background: Broth dilution looks for growth in wells or tubes with falling amounts of substance.
For test [3], the system named is Proteus mirabilis. Description: Antimicrobial activity against Proteus mirabilis ATCC 12453 assessed as >99.9 % reduction in CFU after 18 hrs by broth microdilution method. Particulars: ATCC 12453, 18 h, read-out: MBC.
Test [4] has as its system Klebsiella pneumoniae. The test is described as follows: Antimicrobial activity against Klebsiella pneumoniae ATCC 13883 assessed as >99.9 % reduction in CFU after 18 hrs by broth microdilution method. Conditions: ATCC 13883, 18 h, read-out: MBC.
The subject of test [5] is Bacillus cereus. Description: Antimicrobial activity against Bacillus cereus ATCC 10876 after 18 hrs by broth microdilution method. Particulars: ATCC 10876, 18 h.
In test [6] the test system is Staphylococcus aureus. Description: Antimicrobial activity against Staphylococcus aureus ATCC 6538 assessed as >99.9 % reduction in CFU after 18 hrs by broth microdilution method. Conditions: ATCC 6538, 18 h.
For test [7], the system named is Staphylococcus aureus. The test is described as follows: Antimicrobial activity against Staphylococcus aureus ATCC 25923 assessed as >99.9 % reduction in CFU after 18 hrs by broth microdilution method. Conditions: ATCC 25923, 18 h.
The test system of test [8] is Proteus mirabilis. Description: Antimicrobial activity against Proteus mirabilis ATCC 12453 after 18 hrs by broth microdilution method. Particulars: ATCC 12453, 18 h, read-out: MIC.
In test [9] the test system is Micrococcus luteus. Description: Antimicrobial activity against Micrococcus luteus ATCC 10240 after 18 hrs by broth microdilution method. Particulars: ATCC 10240, 18 h.
Test [10] has as its system Staphylococcus epidermidis. The test is described as follows: Antimicrobial activity against Staphylococcus epidermidis ATCC 12228 after 18 hrs by broth microdilution method. Conditions: ATCC 12228, 18 h.
Test [11] relates to Bacillus subtilis. Description: Antimicrobial activity against Bacillus subtilis ATCC […] after 18 hrs by broth microdilution method.
In test [12] the test system is Klebsiella pneumoniae. Description: Antimicrobial activity against Klebsiella pneumoniae ATCC 13883 after 18 hrs by broth microdilution method. Particulars: ATCC 13883, 18 h.
In test [13] the test system is Staphylococcus epidermidis. The test is described as follows: Antimicrobial activity against Staphylococcus epidermidis ATCC 12228 assessed as >99.9 % reduction in CFU after 18 hrs by broth microdilution method. Conditions: ATCC 12228, 18 h.
Test [14] deals with Staphylococcus aureus. Description: Antimicrobial activity against Staphylococcus aureus ATCC 6538 after 18 hrs by broth microdilution method. Particulars: ATCC 6538, 18 h.
In test [15] the test system is Escherichia coli. The test is described as follows: Antimicrobial activity against Escherichia coli ATCC 25922 after 18 hrs by broth microdilution method. Conditions: ATCC 25922, 18 h.
Test [16] deals with Micrococcus luteus. Description: Antimicrobial activity against Micrococcus luteus ATCC 10240 assessed as >99.9 % reduction in CFU after 18 hrs by broth microdilution method. Conditions: ATCC 10240, 18 h.
Test [17] has as its system Bacillus subtilis. The test is described as follows: Antimicrobial activity against Bacillus subtilis ATCC […] assessed as >99.9 % reduction in CFU after 18 hrs by broth microdilution method.
Test [18] has as its system Escherichia coli. Description: Antimicrobial activity against Escherichia coli ATCC 25922 assessed as >99.9 % reduction in CFU after 18 hrs by broth microdilution method. Conditions: ATCC 25922, 18 h.

The MIC is the lowest concentration that inhibits growth of the organism. The term MBC denotes the lowest tested concentration that kills the bacteria rather than only halting them. As for `S=c1n(CN2CCCC2)nc(-c2cccc(Cl)c2)n1-c1ccccc1`, the MIC with Staphylococcus aureus [1] was 125 µg/mL (≈ 337 µM); with Bacillus cereus [5] it was 125 µg/mL (≈ 337 µM); in the test with Proteus mirabilis [8] it was 500 µg/mL (≈ 1350 µM); in the test with Micrococcus luteus [9], 125 µg/mL (≈ 337 µM); in test [10] it was 125 µg/mL (≈ 337 µM); with Bacillus subtilis [11] it was 125 µg/mL (≈ 337 µM). The results for the MIC against Klebsiella pneumoniae [12], against Staphylococcus aureus [14] and in the test with Escherichia coli [15] were 250 µg/mL (≈ 674 µM), 125 µg/mL (≈ 337 µM) and 500 µg/mL (≈ 1350 µM), respectively. The MBC in the test with Bacillus cereus [2] is over 1000 µg/mL; in the test on Proteus mirabilis [3] it was over 1000 µg/mL; in the test on Klebsiella pneumoniae [4], 500 µg/mL (≈ 1350 µM); with Staphylococcus aureus [6] it was 500 µg/mL (≈ 1350 µM); with Staphylococcus aureus [7] it was 500 µg/mL (≈ 1350 µM); in test [13] it was 1000 µg/mL (≈ 2700 µM). Besides, the values for the MBC in the test with Micrococcus luteus [16], with Bacillus subtilis [17] and in the test on Escherichia coli [18] were 1000 µg/mL (≈ 2700 µM), 500 µg/mL (≈ 1350 µM) and 500 µg/mL (≈ 1350 µM), respectively.
With `Cc1ccc(-n2c(-c3cccc(Cl)c3)nn(CN3CCCC3)c2=S)cc1`, the MIC against Staphylococcus aureus [1] is 31.2 µg/mL (≈ 81.2 µM); against Bacillus cereus [5] it was 125 µg/mL (≈ 325 µM); in the test on Proteus mirabilis [8], over 1000 µg/mL; in the test on Micrococcus luteus [9], 62.5 µg/mL (≈ 162 µM); in test [10], 125 µg/mL (≈ 325 µM); against Bacillus subtilis [11], 31.2 µg/mL (≈ 81.2 µM). Moreover, the MIC with Klebsiella pneumoniae [12] was over 1000 µg/mL; against Staphylococcus aureus [14], 62.5 µg/mL (≈ 162 µM); against Escherichia coli [15] it was over 1000 µg/mL. Besides, the MBC (in the test on Bacillus cereus [2]; in the test on Proteus mirabilis [3]; in the test with Klebsiella pneumoniae [4]; in the test on Staphylococcus aureus [6]; with Staphylococcus aureus [7]; in test [13]) was over 1000 µg/mL each time. Also, the MBC in the test with Micrococcus luteus [16] is over 1000 µg/mL; with Bacillus subtilis [17], 1000 µg/mL (≈ 2600 µM); in the test with Escherichia coli [18], over 1000 µg/mL.
With `COc1ccc(-n2c(-c3cccc(Cl)c3)nn(CN3CCCC3)c2=S)cc1`, the MIC against Staphylococcus aureus [1] worked out at 125 µg/mL (≈ 312 µM); with Bacillus cereus [5], 125 µg/mL (≈ 312 µM); in the test with Proteus mirabilis [8], 500 µg/mL (≈ 1250 µM); against Micrococcus luteus [9] it was 125 µg/mL (≈ 312 µM); in [10], 250 µg/mL (≈ 624 µM); in the test on Bacillus subtilis [11], 250 µg/mL (≈ 624 µM). In addition, the MIC in the test on Klebsiella pneumoniae [12], against Staphylococcus aureus [14] and in the test with Escherichia coli [15] was 250 µg/mL (≈ 624 µM) throughout. Moreover, the MBC in the test with Bacillus cereus [2] was over 1000 µg/mL; in the test with Proteus mirabilis [3], over 1000 µg/mL; in the test on Klebsiella pneumoniae [4], 500 µg/mL (≈ 1250 µM); in the test on Staphylococcus aureus [6] it was 500 µg/mL (≈ 1250 µM); in the test with Staphylococcus aureus [7], 500 µg/mL (≈ 1250 µM); in test [13], 1000 µg/mL (≈ 2490 µM). The MBC is 1000 µg/mL (≈ 2490 µM) with Micrococcus luteus [16], 500 µg/mL (≈ 1250 µM) with Bacillus subtilis [17] and 500 µg/mL (≈ 1250 µM) with Escherichia coli [18].
In the case of `S=c1n(CN2CCCC2)nc(-c2cccc(Cl)c2)n1-c1ccc(Br)cc1`, the MIC against Staphylococcus aureus [1] is 31.2 µg/mL (≈ 69.5 µM); against Bacillus cereus [5], 62.5 µg/mL (≈ 139 µM); with Proteus mirabilis [8], over 1000 µg/mL; against Micrococcus luteus [9], 62.5 µg/mL (≈ 139 µM); in test [10], 250 µg/mL (≈ 556 µM); in the test on Bacillus subtilis [11], 62.5 µg/mL (≈ 139 µM). Further, the MIC was over 1000 µg/mL against Klebsiella pneumoniae [12], 62.5 µg/mL (≈ 139 µM) against Staphylococcus aureus [14] and over 1000 µg/mL in the test with Escherichia coli [15]. The MBC (in the test with Bacillus cereus [2]; in the test with Proteus mirabilis [3]; in the test on Klebsiella pneumoniae [4]; in the test with Staphylococcus aureus [6]; in the test with Staphylococcus aureus [7]; in test [13]) was over 1000 µg/mL each time. In addition, the MBC in the test on Micrococcus luteus [16] is over 1000 µg/mL; with Bacillus subtilis [17] it was 500 µg/mL (≈ 1110 µM); in the test with Escherichia coli [18], over 1000 µg/mL.
